Assay results published in patent publication US10899852B2, “Benzil monoketals and the use thereof” (Merck Patent GmbH, priority 2015, dated 2021).

Test: storage test of polymerisable liquid-crystal mixture P-1 with sealant containing photoinitiator, then UV irradiation in PS-VA test cells; RM-1 concentration by HPLC
Settings: inferred from RM-1 polymerisation after storage 7 d at 80° C.
Experimental: A polymerisable liquid-crystal mixture P-1 consisting of • 1. 99.7% by weight of the nematic liquid-crystal mixture M-1 and • 2. 0.3% by weight of the polymerisable compound RM-1
[drawing 37] is prepared. Three samples of in each case 0.5 g of mixture P-1 are stored together with in each case 1 g of the commercially available sealant Unocol 2094® (APM Technica GmbH, Pürgen-Ummendorf), the latter in each case containing • 1. no photoinitiator • 2. 3.0% by weight of the photoinitiator according to the invention from Example 1 • 3. 3.0% by weight of the commercially available photoinitiator Irgacure651® of the structure shown below in a tightly sealed vial at 80° C. for 7 d with exclusion of air and light. A fourth sample of mixture P-1 is stored under the same conditions without the presence of sealant (blank experiment).
The mixtures are subsequently separated off from the sealant, in each case divided into two parts, introduced into PS-VA test cells and irradiated with a metal halide UV lamp with an intensity of 100 mW/cm^2 at 40° C. for a duration of 60 s or 180 s.
The PS-VA test cells consist of two plane-parallel glass plates having a cell gap of 4 μm, each of which are coated with an ITO electrode and with a polyimide alignment layer on top.
After the irradiation, the concentration of the polymerisable compound RM-1 is determined by HPLC.

Compound	photoinitiator dissolved out of the sealant into the liquid crystal during the storage test
COC(OC)(C(=O)c1ccc(OCC(O)CO)cc1)c1ccc(OCC(O)CO)cc1 (centres unmarked) [Example 1, 1,2-Bis[4-(2,3-dihydroxypropoxy)phenyl]-2,2-dimethoxyethanone]	no photoinitiator according to the invention has been dissolved out of the sealant
COC(OC)(C(=O)c1ccccc1)c1ccccc1 [Irgacure651®]	considerable amounts of photoinitiator have dissolved in the liquid-crystal mixture
